Test results: US7179825B2, “Retinoic acid mimetic anilides” (Janssen Pharmaceutica N.V., priority 1997, dated 2007)

Each molecule was assayed on Ovariectomized rats (assay: Vaginal keratinization test on ovariectomized rats (Example C.2)). Settings: estradiol undecylate induced keratinization, per os once daily on days 1-3, active dose = 50% of rats show complete suppression.
Format: in vivo
From the text: The property to delay the metabolism of retinoic acid can be evidenced in various in vitro and in vivo experiments. A particular in vitro procedure is described in example C.1 and tests the inhibitory activity of the compounds of formula (I) on the metabolism of retinoic acid in human breast cancer cells. The compounds of the present invention were also effective in suppressing induced vaginal keratinization effects in ovariectomized rats as is described in example C.2.
“Vaginal Keratinization Test on Ovariectomized Rats”
Ovariectomized rats were injected subcutaneously with a sesame oil solution containing 100 μg of estradiol undecylate in a volume of 0.1 ml per 100 g body weight and control animals were injected with sesame oil. On day one, two and three, test animals were treated once daily with a per os dose of the test compound and control animals with the drug vehicle (PEG 200). One day after the last treatment, the animals were sacrificed and their vaginas were processed for histological evaluation according to the method described in J. Pharmacol. Exp. Ther. 261(2), 773–779 (1992). A dose at which 50% of the tested rats show complete suppression of the estradiol undecylate induced keratinization effects is defined as an active dose. Table 23 lists the lowest active dose (LAD in mg/kg) of the compounds of formula (I) which were tested.
With `COc1cc(CC(=O)Nc2ccc(C(C(C)N(C)C)n3ccnc3)cc2)ccc1Cl` (single isomer, unassigned) [Compound 310] the “LAD (lowest active dose)” value was 2.50 mg/kg.
In the case of `COc1ccc(CC(=O)Nc2ccc(C(C(C)N(C)C)n3ccnc3)cc2)cc1C` (single isomer, unassigned) [Compound 312], the “LAD (lowest active dose)” value is reported as over 2.50 mg/kg.
With `COc1cc(CC(=O)Nc2ccc(C(C(C)N(C)C)n3ccnc3)cc2)ccc1C` (single isomer, unassigned) [Compound 314] the “LAD (lowest active dose)” value was over 2.50 mg/kg.
For `COc1cc(CC(=O)Nc2ccc(C(C(C)N(C)C)n3ccnc3)cc2)ccc1C` (single isomer, unassigned) [Compound 315], the “LAD (lowest active dose)” value was over 2.50 mg/kg.
With `CC(C(c1ccc(NC(=O)Cc2ccc(N(C)C)cc2)cc1)n1ccnc1)N(C)C` (single isomer, unassigned) [Compound 317] the “LAD (lowest active dose)” value was over 5.00 mg/kg.
With `COc1ccc(CC(=O)Nc2ccc(C(C(C)N(C)C)n3ccnc3)cc2)cc1OC` (single isomer, unassigned) [Compound 318] the “LAD (lowest active dose)” value was over 2.50 mg/kg.
For `CCCCOc1ccc(CC(=O)Nc2ccc(C(C(C)N(C)C)n3ccnc3)cc2)cc1` (single isomer, unassigned) [Compound 319], the “LAD (lowest active dose)” value was over 5.00 mg/kg.
`CCCCOc1ccc(CC(=O)Nc2ccc(C(C(C)N(C)C)n3ccnc3)cc2)cc1` (single isomer, unassigned) [Compound 320] was tested, and the “LAD (lowest active dose)” value was 5.00 mg/kg.
For `CC(C(c1ccc(NC(=O)Cc2ccc3c(c2)OCCO3)cc1)n1cncn1)N(C)C` (single isomer, unassigned) [Compound 322], the “LAD (lowest active dose)” value was over 2.50 mg/kg.
`COc1ccc(C(=O)Nc2ccc(C(C(C)N(C)C)n3cncn3)cc2)cc1OC` (single isomer, unassigned) [Compound 324] was tested, and the “LAD (lowest active dose)” value was over 2.50 mg/kg.
With `CC(C(c1ccc(NC(=O)Cc2ccc3c(c2)OCO3)cc1)n1cncn1)N(C)C` (single isomer, unassigned) [Compound 325] the “LAD (lowest active dose)” value was 2.50 mg/kg.
`COc1ccc(CCCC(=O)Nc2ccc(C(C(C)N(C)C)n3cncn3)cc2)cc1OC` (single isomer, unassigned) [Compound 326] was tested, and the “LAD (lowest active dose)” value was over 2.50 mg/kg.
`COc1ccc(C(=O)Nc2ccc(C(C(C)N(C)C)n3cncn3)cc2)cc1OC` (single isomer, unassigned) [Compound 327] was tested, and the “LAD (lowest active dose)” value was over 2.50 mg/kg.
In the case of `COc1ccc(CCC(=O)Nc2ccc(C(C(C)N(C)C)n3cncn3)cc2)cc1OC` (single isomer, unassigned) [Compound 328], the “LAD (lowest active dose)” value is reported as over 2.50 mg/kg.
In the case of `COc1ccc(CCCC(=O)Nc2ccc(C(C(C)N(C)C)n3cncn3)cc2)cc1OC` (single isomer, unassigned) [Compound 329], the “LAD (lowest active dose)” value is reported as over 2.50 mg/kg.
`CC(C(c1ccc(NC(=O)Cc2ccc3c(c2)OCCO3)cc1)n1cncn1)N(C)C` (single isomer, unassigned) [Compound 333] was tested, and the “LAD (lowest active dose)” value was over 2.50 mg/kg.
In the case of `CC(C(c1ccc(NC(=O)Cc2ccc3c(c2)OCO3)cc1)n1ccnc1)N(C)C` (single isomer, unassigned) [Compound 337], the “LAD (lowest active dose)” value is reported as 2.50 mg/kg.
In the case of `CC(C(c1ccc(NC(=O)Cc2ccc3c(c2)OCCO3)cc1)n1ccnc1)N(C)C` (single isomer, unassigned) [Compound 338], the “LAD (lowest active dose)” value is reported as over 2.50 mg/kg.
With `CC(C(c1ccc(NC(=O)Cc2ccc3c(c2)OCO3)cc1)n1ccnc1)N(C)C` (single isomer, unassigned) [Compound 340] the “LAD (lowest active dose)” value was 2.50 mg/kg.
For `COc1ccc(C(=O)Nc2ccc(C(C(C)N(C)C)n3ccnc3)cc2)cc1OC` (single isomer, unassigned) [Compound 341], the “LAD (lowest active dose)” value was over 2.50 mg/kg.
For `COc1ccc(C(=O)Nc2ccc(C(C(C)N(C)C)n3ccnc3)cc2)cc1OC` (single isomer, unassigned) [Compound 342], the “LAD (lowest active dose)” value was over 2.50 mg/kg.
In the case of `CC(C(c1ccc(NC(=O)Oc2ccccc2)cc1)n1ccnc1)N(C)C` (single isomer, unassigned) [Compound 343], the “LAD (lowest active dose)” value is reported as over 2.50 mg/kg.
`CC(C(c1ccc(NC(=O)N2CCN(C)CC2)cc1)n1ccnc1)N(C)C` (single isomer, unassigned) [Compound 347] was tested, and the “LAD (lowest active dose)” value was over 5.00 mg/kg.
`CC(C(c1ccc(NC(=O)N2CCN(C)CC2)cc1)n1ccnc1)N(C)C` (single isomer, unassigned) [Compound 349] was tested, and the “LAD (lowest active dose)” value was over 2.50 mg/kg.
In the case of `COc1ccccc1OCC(=O)Nc1ccc(C(C(C)N(C)C)n2ccnc2)cc1` (single isomer, unassigned) [Compound 350], the “LAD (lowest active dose)” value is reported as over 2.50 mg/kg.
For `CCCC(C)C(c1ccc(NC(=O)Cc2ccc(Cl)cc2)cc1)n1ccnc1` (single isomer, unassigned) [Compound 374], the “LAD (lowest active dose)” value was 2.50 mg/kg.
For `COc1ccc(CC(=O)Nc2ccc(C(C(C)N(C)C)n3ccnc3)cc2)cc1OC` (single isomer, unassigned) [Compound 379], the “LAD (lowest active dose)” value was over 2.50 mg/kg.
`CCOC(=O)C(C)C(c1ccc(NC(=O)Cc2ccc(OC)c(OC)c2)cc1)n1ccnc1` (single isomer, unassigned) [Compound 381] was tested, and the “LAD (lowest active dose)” value was over 2.50 mg/kg.
For `CCCCCC(C)C(c1ccc(NC(=O)Cc2ccc(OC)c(OC)c2)cc1)n1ccnc1` (single isomer, unassigned) [Compound 384], the “LAD (lowest active dose)” value was over 2.50 mg/kg.
For `CCN(CC)C(C)C(c1ccc(NC(=O)Cc2ccc(OC)c(OC)c2)cc1)n1ccnc1` (single isomer, unassigned) [Compound 387], the “LAD (lowest active dose)” value was over 2.50 mg/kg.
With `COc1ccc(CC(=O)Nc2ccc(C(C(C)CN3CCCCC3)n3ccnc3)cc2)cc1OC` (single isomer, unassigned) [Compound 390] the “LAD (lowest active dose)” value was over 2.50 mg/kg.
`COc1ccc(CC(=O)Nc2ccc(C(C(C)CN(C)C)n3ccnc3)cc2)cc1OC` (single isomer, unassigned) [Compound 391] was tested, and the “LAD (lowest active dose)” value was over 5.00 mg/kg.
`COc1ccc(CC(=O)Nc2ccc(C(C(C)CN(C)C)n3ccnc3)cc2)cc1OC` (single isomer, unassigned) [Compound 392] was tested, and the “LAD (lowest active dose)” value was over 5.00 mg/kg.
In the case of `COc1ccc(CC(=O)Nc2ccc(C(C(C)N(C)Cc3ccccc3)n3ccnc3)cc2)cc1OC` (single isomer, unassigned) [Compound 396], the “LAD (lowest active dose)” value is reported as over 2.50 mg/kg.
With `COc1ccc(CC(=O)Nc2ccc(C(C(C)N(C)Cc3ccccc3)n3ccnc3)cc2)cc1OC` (single isomer, unassigned) [Compound 398] the “LAD (lowest active dose)” value was over 5.00 mg/kg.
With `CNC(C)C(c1ccc(NC(=O)Cc2ccc(OC)c(OC)c2)cc1)n1ccnc1.O` (single isomer, unassigned) [Compound 401] the “LAD (lowest active dose)” value was over 2.50 mg/kg.
In the case of `CCCCN(C)C(C)C(c1ccc(NC(=O)Cc2ccc(OC)c(OC)c2)cc1)n1ccnc1` (single isomer, unassigned) [Compound 406], the “LAD (lowest active dose)” value is reported as over 5.00 mg/kg.
In the case of `COc1ccc(CC(=O)Nc2ccc(C(C(C)N(C)CCN(C)C)n3ccnc3)cc2)cc1OC` (single isomer, unassigned) [Compound 407], the “LAD (lowest active dose)” value is reported as over 5.00 mg/kg.
For `COc1ccc(CC(=O)Nc2ccc(C(C(C)N3CCOCC3)n3ccnc3)cc2)cc1OC` (single isomer, unassigned) [Compound 408], the “LAD (lowest active dose)” value was over 5.00 mg/kg.
For `COc1ccc(CC(=O)Nc2ccc(C(C(C)N3CCOCC3)n3ccnc3)cc2)cc1OC` (single isomer, unassigned) [Compound 409], the “LAD (lowest active dose)” value was 5.00 mg/kg.
In the case of `COc1ccc(CC(=O)Nc2ccc(C(C3CCCN(C)C3)n3ccnc3)cc2)cc1OC` (single isomer, unassigned) [Compound 410], the “LAD (lowest active dose)” value is reported as over 5.00 mg/kg.
In the case of `COc1ccc(CC(=O)Nc2ccc(C(C3CCCCN3C)n3ccnc3)cc2)cc1OC` (single isomer, unassigned) [Compound 411], the “LAD (lowest active dose)” value is reported as 2.50 mg/kg.
`CCCN(C)C(C)C(c1ccc(NC(=O)Cc2ccc(OC)c(OC)c2)cc1)n1ccnc1` (single isomer, unassigned) [Compound 414] was tested, and the “LAD (lowest active dose)” value was 5.00 mg/kg.
`COc1ccc(CC(=O)Nc2ccc(C(C(C)OC(=O)N(Cc3ccccc3)Cc3ccccc3)n3ccnc3)cc2)cc1OC` (single isomer, unassigned) [Compound 417] was tested, and the “LAD (lowest active dose)” value was over 5.00 mg/kg.
In the case of `COc1ccc(CC(=O)Nc2ccc(C(C(C)N(Cc3ccccc3)Cc3ccccc3)n3ccnc3)cc2)cc1OC` (single isomer, unassigned) [Compound 419], the “LAD (lowest active dose)” value is reported as over 5.00 mg/kg.
With `COc1cc(CC(=O)Nc2ccc(C(C(C)N(C)C)n3ccnc3)cc2)cc(OC)c1OC` (single isomer, unassigned) [Compound 428] the “LAD (lowest active dose)” value was over 2.50 mg/kg.
`COc1ccc(CCC(=O)Nc2ccc(C(C(C)N(C)C)n3ccnc3)cc2)cc1OC` (single isomer, unassigned) [Compound 429] was tested, and the “LAD (lowest active dose)” value was over 2.50 mg/kg.
In the case of `COc1ccc(CCCC(=O)Nc2ccc(C(C(C)N(C)C)n3ccnc3)cc2)cc1OC.O=C(O)C(=O)O` (single isomer, unassigned) [Compound 431], the “LAD (lowest active dose)” value is reported as over 2.50 mg/kg.
With `COc1ccc(CC(=O)N(C)c2ccc(C(C(C)N(C)C)n3cncn3)cc2)cc1OC` (single isomer, unassigned) [Compound 437] the “LAD (lowest active dose)” value was over 2.50 mg/kg.
`COc1ccc(CC(=O)N(C)c2ccc(C(C(C)N(C)C)n3cncn3)cc2)cc1OC` (single isomer, unassigned) [Compound 438] was tested, and the “LAD (lowest active dose)” value was over 2.50 mg/kg.
In the case of `COc1ccc(CC(=O)N(C)c2ccc(C(C(C)N(C)C)n3ccnc3)cc2)cc1OC` (single isomer, unassigned) [Compound 439], the “LAD (lowest active dose)” value is reported as over 2.50 mg/kg.
